Tested on: WSU-DLCL2 cells
Test: RT2 Glucocorticoid signaling PCR array, WSU-DLCL2 (WSU) cell line (Table 4c)
Assay type: cell-based

What does the source list for C[C@]12C=CC(=O)C=C1CC[C@@H]1[C@@H]2[C@@H](O)C[C@@]2(C)[C@H]1CC[C@]2(O)C(=O)CO [Prednisolone, prednisolone]?
ΔCT (B2M), MERTK (gene MERTK): 13.379; Ct Values, MT2A (gene MT2A): 24.518; ΔCT (B2M), MT2A (gene MT2A): 5.373; ΔΔCT, MT2A (gene MT2A, compared to DMSO): 0.106; Ct Values, NFKBIA (gene NFKBIA): 22.895; ΔCT (B2M), NFKBIA (gene NFKBIA): 3.750; ΔΔCT, NFKBIA (gene NFKBIA, compared to DMSO): 0.829; Ct Values, NR3C1 (gene NR3C1): 23.110; ΔCT (B2M), NR3C1 (gene NR3C1): 3.965; ΔΔCT, NR3C1 (gene NR3C1, compared to DMSO): 0.165; Ct Values, PDCD7 (gene PDCD7): 23.874; ΔCT (B2M), PDCD7 (gene PDCD7): 4.729; ΔΔCT, PDCD7 (gene PDCD7, compared to DMSO): 0.000; Ct Values, PDP1 (gene PDP1): 24.957; ΔCT (B2M), PDP1 (gene PDP1): 5.812; ΔΔCT, PDP1 (gene PDP1, compared to DMSO): −0.109; Ct Values, PER1 (gene PER1): 24.989; ΔCT (B2M), PER1 (gene PER1): 5.844; ΔΔCT, PER1 (gene PER1, compared to DMSO): 0.185; Ct Values, PER2 (gene PER2): 24.218; ΔCT (B2M), PER2 (gene PER2): 5.073; ΔΔCT, PER2 (gene PER2, compared to DMSO): 0.072; Ct Values, PIK3R1 (gene PIK3R1): 23.429; ΔCT (B2M), PIK3R1 (gene PIK3R1): 4.284; ΔΔCT, PIK3R1 (gene PIK3R1, compared to DMSO): 0.000; Ct Values, PLD1 (gene PLD1): 35.266; ΔCT (B2M), PLD1 (gene PLD1): 16.121; Ct Values, PLEKHF1 (gene PLEKHF1): 26.977; ΔCT (B2M), PLEKHF1 (gene PLEKHF1): 7.832; ΔΔCT, PLEKHF1 (gene PLEKHF1, compared to DMSO): 0.077; Ct Values, POU2F1 (gene POU2F1): 24.368; ΔCT (B2M), POU2F1 (gene POU2F1): 5.223; ΔΔCT, POU2F1 (gene POU2F1, compared to DMSO): 0.439; Ct Values, POU2F2 (gene POU2F2): 22.565; ΔCT (B2M), POU2F2 (gene POU2F2): 3.420; ΔΔCT, POU2F2 (gene POU2F2, compared to DMSO): −0.753; Ct Values, RASA3 (gene RASA3): 23.454; ΔCT (B2M), RASA3 (gene RASA3): 4.309; ΔΔCT, RASA3 (gene RASA3, compared to DMSO): −0.193; Ct Values, RGS2 (gene RGS2): 23.962; ΔCT (B2M), RGS2 (gene RGS2): 4.817; ΔΔCT, RGS2 (gene RGS2, compared to DMSO): 1.365; Ct Values, RHO8 (gene RHO8): 28.803; ΔCT (B2M), RHO8 (gene RHO8): 9.658; ΔΔCT, RHO8 (gene RHO8, compared to DMSO): −0.616; Ct Values, RPLP0 (gene RPLP0): 15.330; ΔCT (B2M), RPLP0 (gene RPLP0): −3.815; Ct Values, SESN1 (gene SESN1): 25.915; ΔCT (B2M), SESN1 (gene SESN1): 6.770; ΔΔCT, SESN1 (gene SESN1, compared to DMSO): −2.469; Ct Values, SGK1 (gene SGK1): 27.309; ΔCT (B2M), SGK1 (gene SGK1): 8.164; ΔΔCT, SGK1 (gene SGK1, compared to DMSO): 2.035; Ct Values, SLC10A6 (gene SLC10A6): 37.200; ΔCT (B2M), SLC10A6 (gene SLC10A6): 18.055; ΔΔCT, SLC10A6 (gene SLC10A6, compared to DMSO): 0.888; Ct Values, SLC19A2 (gene SLC19A2): 25.887; ΔCT (B2M), SLC19A2 (gene SLC19A2): 6.742; ΔΔCT, SLC19A2 (gene SLC19A2, compared to DMSO): −0.446; Ct Values, SLC22A5 (gene SLC22A5): 29.427; ΔCT (B2M), SLC22A5 (gene SLC22A5): 10.282; ΔΔCT, SLC22A5 (gene SLC22A5, compared to DMSO): 0.831; Ct Values, SNTA1 (gene SNTA1): 24.329; ΔCT (B2M), SNTA1 (gene SNTA1): 5.184; ΔΔCT, SNTA1 (gene SNTA1, compared to DMSO): 0.196; Ct Values, SPHK1 (gene SPHK1): 29.804; ΔCT (B2M), SPHK1 (gene SPHK1): 10.659; ΔΔCT, SPHK1 (gene SPHK1, compared to DMSO): 0.466; Ct Values, SPSB1 (gene SPSB1): 29.963; ΔCT (B2M), SPSB1 (gene SPSB1): 10.818; ΔΔCT, SPSB1 (gene SPSB1, compared to DMSO): 0.655; Ct Values, STAT5A (gene STAT5A): 25.699; ΔCT (B2M), STAT5A (gene STAT5A): 6.554; ΔΔCT, STAT5A (gene STAT5A, compared to DMSO): 0.437; Ct Values, STAT5B (gene STAT5B): 23.270; ΔCT (B2M), STAT5B (gene STAT5B): 4.125; ΔΔCT, STAT5B (gene STAT5B, compared to DMSO): 0.161; Ct Values, TBL1XR1 (gene TBL1XR1): 21.479; ΔCT (B2M), TBL1XR1 (gene TBL1XR1): 2.334; ΔΔCT, TBL1XR1 (gene TBL1XR1, compared to DMSO): 0.182; Ct Values, TNF (gene TNF): 24.151; ΔCT (B2M), TNF (gene TNF): 5.006; ΔΔCT, TNF (gene TNF, compared to DMSO): 0.762; Ct Values, TNFAIP3 (gene TNFAIP3): 26.733; ΔCT (B2M), TNFAIP3 (gene TNFAIP3): 7.588; ΔΔCT, TNFAIP3 (gene TNFAIP3, compared to DMSO): 2.092; Ct Values, TSC22D3 (gene TSC22D3): 22.481; ΔCT (B2M), TSC22D3 (gene TSC22D3): 3.336; ΔΔCT, TSC22D3 (gene TSC22D3, compared to DMSO): −2.728; Ct Values, USP2 (gene USP2): 20.884; ΔCT (B2M), USP2 (gene USP2): 1.739; ΔΔCT, USP2 (gene USP2, compared to DMSO): −1.457; Ct Values, USPS4 (gene USPS4): 26.453; ΔCT (B2M), USPS4 (gene USPS4): 7.308; ΔΔCT, USPS4 (gene USPS4, compared to DMSO): 0.209; Ct Values, VDR (gene VDR): 29.232; ΔCT (B2M), VDR (gene VDR): 10.087; ΔΔCT, VDR (gene VDR, compared to DMSO): −0.565; Ct Values, VLDLR (gene VLDLR): 30.596; ΔCT (B2M), VLDLR (gene VLDLR): 11.451; ΔΔCT, VLDLR (gene VLDLR, compared to DMSO): 2.649; Ct Values, ZFP36 (gene ZFP36): 25.166; ΔCT (B2M), ZFP36 (gene ZFP36): 6.021; ΔΔCT, ZFP36 (gene ZFP36, compared to DMSO): 1.104; Ct Values, ZHX3 (gene ZHX3): 25.570; ΔCT (B2M), ZHX3 (gene ZHX3): 6.425; ΔΔCT, ZHX3 (gene ZHX3, compared to DMSO): 0.101; Ct Values, ZNF281 (gene ZNF281): 23.608; ΔCT (B2M), ZNF281 (gene ZNF281): 4.463; ΔΔCT, ZNF281 (gene ZNF281, compared to DMSO): −0.094

From patent US10456407B2, “Combination therapy for treating cancer” (Epizyme, Inc., priority 2015, dated 2019)
